Consider 2 molecules from patent publication US8552026B2, “Isatin derivatives, medicaments containing the isatin derivatives and method for its preparation” (King Saud University, priority 2011, dated 2013).

Converted amounts (≈) assume the structure as drawn.

Test in all cases: In vitro anti-TB activity, agar dilution method
Holding throughout (format): cell-based
On the technique in general: In agar dilution, organisms are placed on agar that contains the substance at set levels.

Experiment [1] relates to Mycobacterium intercellulari (ATCC35743). The conditions noted are these: for MIC: Mycobacterium, ATCC35743, agar dilution, 35° C., 48 hours, read-out: MIC (μg/ml)/Mycobacterium strain M. intercellulari. On the procedure: (§1) The anti-TB activity of the synthesized compound was tested using the agar dilution method, see T. Aboul-Fadl, F. A. Mohammed, E. A. Hassan, Arch. Pharm. Res. 26 (2003) 778-784 and NCCLS Susceptibility Testing of Mycobacteria, Nocardia, and Other Aerobic Actinomycetes; Tentative Standard NCCLS document M24-T2 [ISBN 1-56238-423-6], second ed., NCCLS, 960 West Valley Road, Suite 1400, Wayne, Pa. 2000, 19087-1898, USA.
(§2) The synthesized compound was solubilized in DMSO at a concentration of 1 mg/ml. Appropriate amount was diluted first with 10% molten agar to give a concentration of 200 μg/ml. Further dilutions for the active compound were done to give 100, 50, 25, 12.5, 6.25 and up to 0.625 μg/ml. The agar and the compound solution were mixed thoroughly and the mixture was poured in Petri-dishes on a level surface to result in an agar depth of 3-4 mm and allowed to harden. The incula were prepared by growing overnight culture in Mueller-Hinton broth. The cultures were diluted 1:100. Test organisms were streaked in a radial pattern and plates were incubated at 35° C. for 48 hours. Control experiments consisted of the tested TB strains, DMSO and the growing media were treated in the same manner. Complete […] of growth was observed prior to declaring the compound to be active. The synthesized compound was evaluated for the antimycobacterial activity in vitro again four Mycobacterium strains: Mycobacterium intercellulari (ATCC35743), Mycobacterium xenopi (ATCC 14470), Mycobacterium cheleneo (ATCC 35751) and Mycobacterium smegmatis (ATCC 35797) by the agar dilution method. Isoniazid (INH) was used as a reference drug and control experiments done using a growth media free from drugs or the tested compound. Results of the in vitro antitubercular activity on the tested compound along with standard drug for comparison are given in table 1.

The test system of experiment [2] is Mycobacterium cheleneo (ATCC 35751). To be noted: ATCC35751, 35° C., 48 hours, read-out: MIC (μg/ml)/Mycobacterium strain M. cheleneo. On the procedure: as §1, §2
In experiment [3] the test system is Mycobacterium smegmatis (ATCC 35797). To be noted: Mycolicibacterium smegmatis, ATCC35797, 35° C., 48 hours, read-out: MIC (μg/ml)/Mycobacterium strain M. smegmatis. On the procedure: as §1, §2
Experiment [4] deals with Mycobacterium xenopi (ATCC 14470). The conditions noted are these: ATCC14470, 35° C., 48 hours, read-out: MIC (μg/ml)/Mycobacterium strain M. xenopi. On the procedure: as §1, §2

Regarding `NNC(=O)c1ccncc1` [INH, Isoniazid, reference compound], the MIC in experiment [1], in experiment [2], in experiment [3] and in experiment [4] was 12.5 µg/mL (≈ 91.1 µM) throughout.
On to `CCn1cc(C(=O)NN=C2C(=O)N(Cc3ccccc3)c3ccccc32)c(=O)c2ccc(C)nc21` [R = H; R1 = H, N′-(1-benzyl-2-oxoindolin-3-ylidene)-1-ethyl-1,4-dihydro-7-methyl-4-oxo-1,8-naphthyridine-3-carbohydrazid], for which the MIC in experiment [1], in experiment [2], in experiment [3] and in experiment [4] was 0.625 µg/mL (≈ 1.34 µM) each time. In addition, the “potency relative to INH in vitro” value in experiment [1] (antitubercular activity screening, all four strains, versus first line drug INH) was 20 times.
